pIC50: −log10 of the molar value. Values joined by “and” are separate entries in the source; they are usually repeats but may differ in a detail not shown here. Equal values may be shown once. Read-outs that look alike come from different tables or passages of the source.
Legend:
[1] = test system: human prostate PC3-mm2 tumor cell line; assay: In vitro cell culture growth assay (MTS), PC3-mm2; type: cell-based; details: Homo sapiens, PC3MM2, 72 h
PI3K-γ = PI3K-γ (Homo sapiens, UniProt P48736); assay: PI3K-gamma fluorescence polarization assay; details: read-out: IC50 PI3Kγ
Chain of PI3K-γ (P48736 whole entry, species assumed): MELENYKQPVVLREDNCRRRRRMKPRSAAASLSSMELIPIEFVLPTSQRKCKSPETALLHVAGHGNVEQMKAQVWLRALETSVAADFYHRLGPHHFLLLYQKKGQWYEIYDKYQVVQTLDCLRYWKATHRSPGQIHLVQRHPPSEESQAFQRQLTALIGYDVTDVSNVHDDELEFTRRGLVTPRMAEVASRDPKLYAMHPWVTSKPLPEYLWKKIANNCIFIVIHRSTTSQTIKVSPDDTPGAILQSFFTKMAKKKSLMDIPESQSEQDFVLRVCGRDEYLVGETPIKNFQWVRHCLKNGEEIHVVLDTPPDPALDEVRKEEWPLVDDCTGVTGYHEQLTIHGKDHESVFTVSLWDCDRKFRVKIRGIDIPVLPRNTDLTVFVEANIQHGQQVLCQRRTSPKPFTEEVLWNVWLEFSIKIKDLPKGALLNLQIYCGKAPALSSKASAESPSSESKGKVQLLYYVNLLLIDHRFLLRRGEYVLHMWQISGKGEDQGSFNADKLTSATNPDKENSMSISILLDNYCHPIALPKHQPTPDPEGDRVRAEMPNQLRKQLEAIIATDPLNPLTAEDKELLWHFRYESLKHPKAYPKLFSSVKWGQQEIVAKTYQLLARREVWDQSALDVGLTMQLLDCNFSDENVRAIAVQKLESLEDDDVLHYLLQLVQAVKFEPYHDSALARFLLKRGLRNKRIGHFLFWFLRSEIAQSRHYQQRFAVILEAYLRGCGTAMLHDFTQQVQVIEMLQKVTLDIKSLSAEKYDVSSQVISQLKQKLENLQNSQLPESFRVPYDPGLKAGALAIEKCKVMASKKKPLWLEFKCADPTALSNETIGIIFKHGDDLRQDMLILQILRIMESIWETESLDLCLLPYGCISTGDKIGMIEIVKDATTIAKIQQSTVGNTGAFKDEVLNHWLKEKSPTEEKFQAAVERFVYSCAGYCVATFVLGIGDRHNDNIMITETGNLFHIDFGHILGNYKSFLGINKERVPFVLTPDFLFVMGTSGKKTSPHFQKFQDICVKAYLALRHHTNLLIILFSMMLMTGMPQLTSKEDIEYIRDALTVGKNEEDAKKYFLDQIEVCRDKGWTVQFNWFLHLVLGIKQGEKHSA

PI3K-α = PI3K-α (Homo sapiens, UniProt P42336); assay: PI3K-alpha fluorescence polarization assay; details: read-out: IC50 PI3Kα
Chain of PI3K-α (P42336 whole entry, species assumed): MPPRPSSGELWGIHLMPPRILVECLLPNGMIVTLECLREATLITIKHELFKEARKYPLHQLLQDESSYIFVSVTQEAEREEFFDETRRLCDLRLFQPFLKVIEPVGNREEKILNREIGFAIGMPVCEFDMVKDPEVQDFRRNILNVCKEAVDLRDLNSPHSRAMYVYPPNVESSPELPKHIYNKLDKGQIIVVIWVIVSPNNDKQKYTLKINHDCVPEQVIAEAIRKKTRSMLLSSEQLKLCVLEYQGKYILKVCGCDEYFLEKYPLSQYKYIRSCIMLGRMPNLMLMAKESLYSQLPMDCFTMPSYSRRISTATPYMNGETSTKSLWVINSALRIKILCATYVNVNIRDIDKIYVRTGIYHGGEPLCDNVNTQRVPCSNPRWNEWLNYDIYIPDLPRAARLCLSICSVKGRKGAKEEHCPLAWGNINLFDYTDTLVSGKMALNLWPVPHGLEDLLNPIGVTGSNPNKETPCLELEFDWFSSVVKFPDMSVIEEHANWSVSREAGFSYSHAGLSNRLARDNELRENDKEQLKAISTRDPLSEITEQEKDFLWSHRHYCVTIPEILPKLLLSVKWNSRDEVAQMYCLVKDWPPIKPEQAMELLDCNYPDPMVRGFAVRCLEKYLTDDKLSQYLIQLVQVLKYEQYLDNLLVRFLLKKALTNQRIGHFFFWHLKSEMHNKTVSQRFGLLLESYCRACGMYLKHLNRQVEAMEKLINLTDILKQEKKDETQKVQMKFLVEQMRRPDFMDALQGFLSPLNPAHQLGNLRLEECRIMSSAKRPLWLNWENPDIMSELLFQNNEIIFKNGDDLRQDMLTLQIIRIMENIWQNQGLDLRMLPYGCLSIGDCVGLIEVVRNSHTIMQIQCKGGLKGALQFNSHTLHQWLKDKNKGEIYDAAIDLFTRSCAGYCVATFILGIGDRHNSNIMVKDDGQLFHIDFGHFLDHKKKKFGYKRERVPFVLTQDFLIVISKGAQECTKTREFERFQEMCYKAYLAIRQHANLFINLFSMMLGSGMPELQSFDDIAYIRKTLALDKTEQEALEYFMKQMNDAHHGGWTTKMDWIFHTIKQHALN
Chain of PI3K-α (P27986 whole entry partner, species assumed): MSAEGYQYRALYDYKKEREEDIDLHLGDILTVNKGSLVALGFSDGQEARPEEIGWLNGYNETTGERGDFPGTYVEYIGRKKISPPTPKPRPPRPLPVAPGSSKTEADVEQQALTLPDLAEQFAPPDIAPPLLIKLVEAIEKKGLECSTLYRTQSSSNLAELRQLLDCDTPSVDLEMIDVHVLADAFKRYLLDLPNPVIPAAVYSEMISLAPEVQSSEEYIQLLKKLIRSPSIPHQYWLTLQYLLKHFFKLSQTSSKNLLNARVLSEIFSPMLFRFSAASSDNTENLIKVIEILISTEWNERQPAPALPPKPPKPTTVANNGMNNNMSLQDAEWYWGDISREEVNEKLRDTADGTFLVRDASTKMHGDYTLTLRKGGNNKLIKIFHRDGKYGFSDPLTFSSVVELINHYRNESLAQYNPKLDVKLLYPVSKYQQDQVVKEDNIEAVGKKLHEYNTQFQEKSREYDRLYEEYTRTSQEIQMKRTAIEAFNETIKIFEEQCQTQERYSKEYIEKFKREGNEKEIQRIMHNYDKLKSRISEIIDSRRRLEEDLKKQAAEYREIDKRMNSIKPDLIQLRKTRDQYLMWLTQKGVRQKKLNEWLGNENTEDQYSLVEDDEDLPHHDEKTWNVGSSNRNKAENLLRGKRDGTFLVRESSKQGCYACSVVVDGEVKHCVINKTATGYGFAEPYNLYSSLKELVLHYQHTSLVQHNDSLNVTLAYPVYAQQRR

[2] = test system: human breast MDA-MB-361 tumor cell line; assay: In vitro cell culture growth assay (MTS), MDA-MB-361; type: cell-based; details: Homo sapiens
Human mTOR (FLAG-TOR) = Human mTOR (FLAG-TOR) (Homo sapiens, UniProt P42345); assay: mTOR kinase assay (DELFIA format, purified enzyme); type: biochemical; details: read-out: IC50 mTOR
Chain of Human mTOR (FLAG-TOR) (P42345 1360-2549 limits assumed): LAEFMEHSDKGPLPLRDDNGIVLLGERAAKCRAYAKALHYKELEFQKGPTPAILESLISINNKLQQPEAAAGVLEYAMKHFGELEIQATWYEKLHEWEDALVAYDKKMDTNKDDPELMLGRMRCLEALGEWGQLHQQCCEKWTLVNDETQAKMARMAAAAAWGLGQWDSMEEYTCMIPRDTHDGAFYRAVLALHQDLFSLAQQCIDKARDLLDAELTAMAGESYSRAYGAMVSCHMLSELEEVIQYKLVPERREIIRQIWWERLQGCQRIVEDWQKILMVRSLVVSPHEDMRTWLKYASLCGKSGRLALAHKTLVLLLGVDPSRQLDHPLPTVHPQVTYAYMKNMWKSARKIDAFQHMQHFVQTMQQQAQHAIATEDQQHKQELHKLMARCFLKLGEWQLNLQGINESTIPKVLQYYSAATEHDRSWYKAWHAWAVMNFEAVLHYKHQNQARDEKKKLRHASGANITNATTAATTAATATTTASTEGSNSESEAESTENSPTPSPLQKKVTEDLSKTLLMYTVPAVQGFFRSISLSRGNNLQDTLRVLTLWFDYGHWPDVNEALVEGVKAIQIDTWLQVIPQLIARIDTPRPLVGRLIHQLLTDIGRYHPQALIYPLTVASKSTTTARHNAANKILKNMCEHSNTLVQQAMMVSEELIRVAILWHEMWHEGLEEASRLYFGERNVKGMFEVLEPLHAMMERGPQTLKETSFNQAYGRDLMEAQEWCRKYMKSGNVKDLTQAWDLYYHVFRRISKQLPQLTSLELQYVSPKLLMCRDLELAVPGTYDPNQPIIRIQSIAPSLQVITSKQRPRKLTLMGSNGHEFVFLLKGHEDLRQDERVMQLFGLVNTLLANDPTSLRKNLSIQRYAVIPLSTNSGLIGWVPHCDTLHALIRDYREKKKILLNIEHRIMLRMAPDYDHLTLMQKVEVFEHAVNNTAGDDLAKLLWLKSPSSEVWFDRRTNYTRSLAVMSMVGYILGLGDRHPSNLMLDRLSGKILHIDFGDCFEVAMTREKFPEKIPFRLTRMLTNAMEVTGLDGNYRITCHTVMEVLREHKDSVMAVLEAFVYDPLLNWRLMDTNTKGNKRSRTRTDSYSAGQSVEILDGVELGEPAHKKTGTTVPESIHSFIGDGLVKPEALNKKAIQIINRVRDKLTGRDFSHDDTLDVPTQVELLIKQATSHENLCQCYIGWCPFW

[3] = MTS cell growth assay, three days after drug treatment, PC3-mm2 cells, read-out: IC50 PC3-mm2
[4] = MDA-MB-361, 72 h, MTS cell growth assay, three days after drug treatment, MDA-MB-361 cells, read-out: IC50 MDA-MB-361
[5] = MTS cell growth assay, three days after drug treatment, read-out: IC50 PC3-mm2
[6] = MDA-MB-361, 72 h, MTS cell growth assay, three days after drug treatment, read-out: IC50 MDA-MB-361
[7] = 72 h, MTS cell growth assay, three days after drug treatment, MDA-MB-361 cells, read-out: IC50 MDA-MB-361

Row | Structure (SMILES) | pIC50 (PI3K-γ) | pIC50 (PI3K-α) | pIC50 [2, 4] | pIC50 (Human mTOR (FLAG-TOR)) | pIC50 [1, 5] | pIC50 [2, 6] | pIC50 (PI3K-γ; listed as 536) | pIC50 (PI3K-α; listed as 536) | pIC50 (PI3K-α; listed as 712) | pIC50 ([1]; read-out: IC50 PC3-mm2, MTS cell growth assay, three days after drug treatment) | pIC50 ([2]; MDA-MB-361, 72 h, read-out: IC50 MDA-MB-361, MTS cell growth assay, three days after drug treatment) | pIC50 [1, 3] | pIC50 [2, 7] | pIC50 (PI3K-γ; listed as 726) | pIC50 (PI3K-γ; listed as 674)
1 | O=C(Nc1ccc(C(=O)N2CCN(C3CCCC3)CC2)cc1)Nc1ccc(-c2nc(N3CCOCC3)nc(N3C4CCC3COC4)n2)cc1 [Example 755, 1-{4-[(4-cyclopentylpiperazin-1-yl)carbonyl]phenyl}-3-{4-[4-morpholin-4-yl-6-(3-oxa-8-azabicyclo[3.2.1]oct-8-yl)-1,3,5-triazin-2-yl]phenyl}urea] | 7.58 | 8.70 | 8.52 | 9.24 | – | – | – | – | – | – | – | 7.89 | – | – | –
2 | CN1CCN(C(=O)c2ccc(NC(=O)Nc3ccc(-c4nc(N5CCOCC5)nc(N5C6CCC5COC6)n4)cc3)cc2)CC1 [Example 697, 1-{4-[(4-methylpiperazin-1-yl)carbonyl]phenyl}-3-{4-[4-morpholin-4-yl-6-(3-oxa-8-azabicyclo[3.2.1]oct-8-yl)-1,3,5-triazin-2-yl]phenyl}urea] | 7.37 | 8.57 | > 7.52 | 9.34 | – | – | – | – | – | – | – | > 7.52 | – | – | –
3 | COC(=O)c1ccc(NC(=O)Nc2ccc(-c3nc(N4CCOCC4)nc(N4C5COCC4COC5)n3)cc2)cc1 [Example 770, methyl 4-[({4-[4-(3,7-dioxa-9-azabicyclo[3.3.1]non-9-yl)-6-morpholin-4-yl-1,3,5-triazin-2-yl]phenyl}carbamoyl)amino]benzoate] | 7.00 | 7.52 | – | 9.57 | – | – | – | – | – | – | – | 7.60 | 7.40 | – | –
4 | C=Cc1ccc(NC(=O)Nc2ccc(-c3nc(N4CCOCC4)nc(N4C5CCC4COC5)n3)cc2)cc1 [Example 249, 1-(4-ethenylphenyl)-3-{4-[4-morpholin-4-yl-6-(3-oxa-8-azabicyclo[3.2.1]oct-8-yl)-1,3,5-triazin-2-yl]phenyl}urea] | 6.67 | 7.60 | – | 8.70 and 8.60 | 6.85 | 7.04 | – | – | – | – | – | 6.85 | – | 6.66 | –
5 | O=C(Nc1ccncc1)Nc1ccc(-c2nc(N3CCOCC3)nc(N3C4CCCC3COC4)n2)cc1 [Example 791, 1-{4-[4-morpholin-4-yl-6-(3-oxa-9-azabicyclo[3.3.1]non-9-yl)-1,3,5-triazin-2-yl]phenyl}-3-pyridin-4-ylurea] | 7.19 | 7.90 | – | 9.17 | – | – | – | – | – | – | – | 7.38 | 7.96 | – | –
6 | Nc1nc2cc(-c3nc(N4CCOCC4)nc(N4C5CCC4COC5)n3)ccc2[nH]1 [Example 684, 5-[4-morpholin-4-yl-6-(3-oxa-8-azabicyclo[3.2.1]oct-8-yl)-1,3,5-triazin-2-yl]-1H-benzimidazol-2-amine] | 5.63 | 6.81 | – | 7.63 | – | – | – | – | – | – | – | 5.99 | 6.09 | – | –
7 | O=C(Nc1ccncc1)Nc1ccc(-c2nc(N3CCOCC3)nc(N3C4COCC3COC4)n2)cc1 [Example 765, 1-{4-[4-(3,7-dioxa-9-azabicyclo[3.3.1]non-9-yl)-6-morpholin-4-yl-1,3,5-triazin-2-yl]phenyl}-3-pyridin-4-ylurea] | 7.11 | 8.07 | – | 9.71 | – | – | – | – | – | – | – | 7.57 | 7.68 | – | –
8 | Oc1cccc(-c2nc(N3CCOCC3)nc(N3C4CCC3COC4)n2)c1 [Example 683, 3-[4-morpholin-4-yl-6-(3-oxa-8-azabicyclo[3.2.1]oct-8-yl)-1,3,5-triazin-2-yl]phenol] | 5.88 | 6.92 | – | 7.60 | – | – | – | – | – | – | – | 6.23 | 6.17 | – | –
9 | CC(C)Cc1nc(-c2ccc(NC(=O)Nc3ccc(N4CCN(C)CC4)cc3)cc2)nc(N2CCOCC2)n1 [Example 297, 1-[4-(4-methylpiperazin-1-yl)phenyl]-3-{4-[4-(2-methylpropyl)-6-morpholin-4-yl-1,3,5-triazin-2-yl]phenyl}urea] | 7.15 | 7.42 | – | 8.00 | 6.54 | 6.94 | – | – | – | – | – | – | – | – | –
10 | O=C(Nc1ccc(CCO)cc1)Nc1ccc(-c2nc(N3CCOCC3)nc(N3C4CCC3COC4)n2)cc1 [Example 39, 1-[4-(2-hydroxyethyl)phenyl]-3-{4-[4-morpholin-4-yl-6-(3-oxa-8-azabicyclo[3.2.1]oct-8-yl)-1,3,5-triazin-2-yl]phenyl}urea] | 7.12 | 7.85 | – | 9.49 | 7.52 | 7.66 | – | – | – | – | – | 7.52 | – | – | 7.13

Further lines, with some results ahead:

Row | pIC50 (PI3K-γ) | pIC50 (PI3K-α) | pIC50 [2, 4] | pIC50 (Human mTOR (FLAG-TOR)) | pIC50 [1, 5] | pIC50 [2, 6] | pIC50 (PI3K-γ; listed as 536) | pIC50 (PI3K-α; listed as 536) | pIC50 (PI3K-α; listed as 712) | pIC50 ([1]; read-out: IC50 PC3-mm2, MTS cell growth assay, three days after drug treatment) | pIC50 ([2]; MDA-MB-361, 72 h, read-out: IC50 MDA-MB-361, MTS cell growth assay, three days after drug treatment) | Structure (SMILES) | pIC50 [1, 3] | pIC50 [2, 7] | pIC50 (PI3K-γ; listed as 726) | pIC50 (PI3K-γ; listed as 674)
11 | 7.09 | 7.72 | – | 7.54 | 6.72 | 6.88 | – | – | – | – | – | CCc1nc(-c2ccc(NC(=O)Nc3ccc(OCCN(C)C)cc3)cc2)nc(N2CCOCC2)n1 [Example 295, 1-{4-[2-(dimethylamino)ethoxy]phenyl}-3-[4-(4-ethyl-6-morpholin-4-yl-1,3,5-triazin-2-yl)phenyl]urea] | – | – | – | –
12 | 7.82 | 8.52 | 7.65 | 7.96 and 8.03 | 7.17 | 7.65 | 7.89 | 8.82 | – | – | – | CCc1nc(-c2ccc(NC(=O)Nc3ccc(C(=O)N4CCN(C)CC4)cc3)cc2)nc(N2CCOCC2)n1 [Example 236, 1-[4-(4-ethyl-6-morpholin-4-yl-1,3,5-triazin-2-yl)phenyl]-3-{4-[(4-methylpiperazin-1-yl)carbonyl]phenyl}urea] | 7.17 | – | – | –
13 | 6.93 | 8.05 | – | 8.07 | 6.26 | 6.24 | – | – | 8.02 | – | – | O=C(Nc1ccncc1)Nc1ccc(-c2nc(-c3cnc4ccccc4c3)nc(N3CCOCC3)n2)cc1 [Example 137, 1-[4-(4-morpholin-4-yl-6-quinolin-3-yl-1,3,5-triazin-2-yl)phenyl]-3-pyridin-4-ylurea] | 6.26 | – | – | –
14 | 7.68 | 9.00 | – | 8.70 | – | – | – | – | – | 7.41 | 7.44 | O=C(Nc1ccc(CCO)cc1)Nc1ccc(-c2nc(N3CCOCC3)nc(N3CCOCC3)n2)cc1 [Example 50, 1-[4-(4,6-dimorpholin-4-yl-1,3,5-triazin-2-yl)phenyl]-3-[4-(2-hydroxyethyl)phenyl]urea] | – | – | – | –
15 | 7.98 | 9.00 | – | 8.40 | – | – | – | – | – | – | – | CN(C)CCN(C)C(=O)c1ccc(NC(=O)Nc2ccc(-c3nc(-c4cccs4)nc(N4CCOCC4)n3)cc2)cc1 [Example 562, N-[2-(dimethylamino)ethyl]-N-methyl-4-[({4-[4-morpholin-4-yl-6-(2-thienyl)-1,3,5-triazin-2-yl]phenyl}carbamoyl)amino]benzamide] | 7.03 | 8.52 | – | –
16 | 7.27 | 8.42 | – | 9.00 | – | – | – | – | – | – | – | CCN1CCN(C(=O)c2ccc(NC(=O)Nc3ccc(-c4nc(N5CCOC[C@@H]5C)nc(N5CCOC[C@@H]5C)n4)cc3)cc2)CC1 [Example 613, 1-(4-{4,6-bis[(3S)-3-methylmorpholin-4-yl]-1,3,5-triazin-2-yl}phenyl)-3-{4-[(4-ethylpiperazin-1-yl)carbonyl]phenyl}urea] | 7.68 | 8.22 | – | –
17 | 6.98 | 7.24 | – | 8.39 | 6.59 | 6.58 | – | – | – | – | – | Cc1ccc(NC(=O)Nc2ccc(-c3nc(N4CCOCC4)nc(N4CC5CCC(C4)O5)n3)cc2)cc1 [Example 25, 1-(4-methylphenyl)-3-{4-[4-morpholin-4-yl-6-(8-oxa-3-azabicyclo[3.2.1]oct-3-yl)-1,3,5-triazin-2-yl]phenyl}urea] | – | – | – | –
18 | 7.23 | 7.76 | 8.40 | 9.00 | – | – | – | – | – | – | – | CCCN(CCC)C1CCN(C(=O)c2ccc(NC(=O)Nc3ccc(-c4nc(N5CCOC[C@@H]5C)nc(N5CCOC[C@@H]5C)n4)cc3)cc2)CC1 [Example 624, 1-(4-{4,6-bis[(3S)-3-methylmorpholin-4-yl]-1,3,5-triazin-2-yl}phenyl)-3-(4-{[4-(dipropylamino)piperidin-1-yl]carbonyl}phenyl)urea] | 7.72 | – | – | –
19 | 6.92 | 7.27 | – | 11.47 | – | – | – | – | – | – | – | COC(=O)c1ccc(NC(=O)Nc2ccc(-c3nc(N4CCOC[C@@H]4C)nc(N4CCOC[C@@H]4C)n3)cc2)cc1 [Example 540, methyl 4-{[(4-{4,6-bis[(3S)-3-methylmorpholin-4-yl]-1,3,5-triazin-2-yl}phenyl)carbamoyl]amino}benzoate] | 6.51 | 6.78 | – | –
20 | 7.87 | 8.70 | 8.10 | 8.00 | – | – | – | – | – | – | – | CN1CCN(C(=O)c2ccc(NC(=O)Nc3ccc(-c4nc(-c5cccs5)nc(N5CCOCC5)n4)cc3)cc2)CC1 [Example 559, 1-{4-[(4-methylpiperazin-1-yl)carbonyl]phenyl}-3-{4-[4-morpholin-4-yl-6-(2-thienyl)-1,3,5-triazin-2-yl]phenyl}urea] | 6.83 | – | – | –
21 | 7.04 | 7.96 | – | 8.63 | 7.06 | 6.85 | – | – | – | – | – | Cc1cc(NC(=O)Nc2ccc(-c3nc(N4CCOCC4)nc(N4CCOC[C@@H]4C)n3)cc2)ccn1 [Example 92, 1-(4-{4-[(3S)-3-methylmorpholin-4-yl]-6-morpholin-4-yl-1,3,5-triazin-2-yl}phenyl)-3-(2-methylpyridin-4-yl)urea] | – | – | – | –
